For data set [1], the target named is Human JNK1α1 (Homo sapiens, UniProt P45983). The experiment in a line: JNK assay in vitro, phosphorylation of GST-ATF2 (19-96) with [γ-33P] ATP. Type of data set: biochemical. The conditions noted are these: 2 nM enzyme, 1 μM ATF2, 6 μM ATP (Km), 30° C. for 30 min, ten concentration curves; read-out: IC50 JNK1. On the procedure:
(§1) JNK activity was measured by phosphorylation of GST-ATF2 (19-96) with [γ-^33P] ATP. The enzyme reaction was conducted at Km concentrations of ATP and the substrate at final volume of 40 μl in buffer containing 25 mM HEPES, pH 7.5, 2 mM dithiothreitol, 150 mM NaCl, 20 mM MgCl2, 0.001% Tween® 20, 0.1% BSA and 10% DMSO. Human JNK2α2 assay contains 1 nM enzyme, 1 μM ATF2, 8 μM ATP with 1 uCi [γ-^33P] ATP. Human JNK1α1 assay contains 2 nM enzyme, 1 μM ATF2, 6 μM ATP with 1 μCi [γ-^33P] ATP. Human JNK3 (Upstate Biotech #14-501M) assay contains 2 nM enzyme, 1 μM ATF2, 4 μM ATP with 1 μCi [γ-^33P] ATP. The enzyme assay was carried out in the presence or absence of several compound concentrations. JNK and compound were pre-incubated for 10 min., followed by initiation of the enzymatic reaction by adding ATP and the substrate. The reaction mixture was incubated at 30° C. for 30 min. At the end of incubation, the reaction was terminated by transferring 25 μl of the reaction mixture to 150 μl of 10% glutathione Sepharose® slurry (Amersham #27-4574-01) containing 135 mM EDTA. The reaction product was captured on the affinity resin, and washed on a filtration plate (Millipore, MABVNOB50) with phosphate buffered saline for six times to remove free radionucleotide. The incorporation of ^33P into ATF2 was quantified on a microplate scintillation counter (Packard Topcount). Compound inhibition potency on JNK was measured by IC50 value generated from ten concentration inhibition curves fitted into the 3-parameter model: % inhibition=Maximum/(1+(IC50/[Inhibitor])^slope). Data were analyzed on Microsoft Excel for parameter estimation.

In data set [2] the target is Human JNK2α2 (Homo sapiens, UniProt P45984). The description is as above. Type of data set: biochemical. The conditions noted are these: 1 nM enzyme, 1 μM ATF2, 8 μM ATP (Km), 30° C. for 30 min, ten concentration curves; read-out: IC50 JNK2. On the procedure: as §1
Human JNK2α2, sequence (P45984 whole entry): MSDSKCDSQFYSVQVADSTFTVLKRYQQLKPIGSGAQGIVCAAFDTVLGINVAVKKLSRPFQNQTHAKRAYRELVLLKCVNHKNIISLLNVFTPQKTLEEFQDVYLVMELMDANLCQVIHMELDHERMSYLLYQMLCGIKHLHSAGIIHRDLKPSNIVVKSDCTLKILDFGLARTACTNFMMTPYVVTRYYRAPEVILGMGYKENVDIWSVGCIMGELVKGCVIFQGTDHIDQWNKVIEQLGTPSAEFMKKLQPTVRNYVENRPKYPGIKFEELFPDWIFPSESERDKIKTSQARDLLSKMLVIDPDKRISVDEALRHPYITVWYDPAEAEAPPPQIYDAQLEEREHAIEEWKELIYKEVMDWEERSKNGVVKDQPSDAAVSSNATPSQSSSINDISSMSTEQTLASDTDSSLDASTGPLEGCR

Human JNK1α1, sequence (P45983 1-384 isoform P45983-2): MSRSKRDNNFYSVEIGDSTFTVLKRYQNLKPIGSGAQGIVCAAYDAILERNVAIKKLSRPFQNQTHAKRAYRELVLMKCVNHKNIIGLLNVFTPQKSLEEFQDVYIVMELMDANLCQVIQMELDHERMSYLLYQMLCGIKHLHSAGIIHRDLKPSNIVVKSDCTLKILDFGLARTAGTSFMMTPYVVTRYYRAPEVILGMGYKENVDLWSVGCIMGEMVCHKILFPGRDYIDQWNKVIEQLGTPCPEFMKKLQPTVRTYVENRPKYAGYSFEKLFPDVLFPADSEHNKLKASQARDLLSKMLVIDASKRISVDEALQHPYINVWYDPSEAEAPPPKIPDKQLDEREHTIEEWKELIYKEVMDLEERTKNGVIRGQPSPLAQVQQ

As usually defined, the IC50 is the concentration that inhibits the measured activity by half. By melting point is commonly meant the temperature, or range, at which the solid turns liquid. Take `Nc1cc(=O)n([C@@H]2CC[C@@H](O)C2)c2nc(NC3CCCCC3)ncc12` (racemic) [Compound I-1, 5-Amino-2-cyclohexylamino-8-((1R,3R)-3-hydroxy-cyclopentyl)-8H-pyrido[2,3-d]pyrimidin-7-one]: the melting point lay in the range of 169.5 to 170 °C. Moreover, in data set [1], the IC50 amounted to 11.1 nM. In data set [2], the IC50 was found to be 25.8 nM. For `Nc1cc(=O)n(C2CCC2)c2nc(NC3CCCCC3)ncc12` [Compound I-3, 5-Amino-8-cyclobutyl-2-cyclohexylamino-8H-pyrido[2,3-d]pyrimidin-7-one], in that order: 120 to 121.5 °C, 17.9 nM and 40.3 nM.

`Nc1cc(=O)n(C2CCCC2)c2nc(N[C@H]3CC[C@H](O)CC3)ncc12` [Compound I-5, 5-Amino-8-cyclopentyl-2-(4-hydroxy-cyclohexylamino)-8H-pyrido[2,3-d]pyrimidin-7-one]: the melting point was in the range of 246.5 to 248 °C. Also, in data set [1], the IC50 was found to be 20.5 nM. Besides, the IC50 in data set [2] came to 43.9 nM. For the molecule `Nc1cc(=O)n(C2CCCCC2)c2nc(N[C@H]3CC[C@H](C(=O)N4CCOCC4)CC3)ncc12` [Compound I-7, 5-Amino-8-cyclohexyl-2-[4-(morpholine-4-carbonyl)-cyclohexylamino]-8H-pyrido[2,3-d]pyrimidin-7-one], the melting point was in the range of 185 to 203 °C. Besides, the IC50 in data set [1] was found to be 31.6 nM. Also, in data set [2], the IC50 is 39.7 nM. In the same order, the values of `Cc1c(N)c2cnc(N[C@H]3CC[C@H](C(=O)N4CCCC4)CC3)nc2n(C2CCC2)c1=O` [Compound I-9, 5-Amino-8-cyclobutyl-6-methyl-2-[4-(pyrrolidine-1-carbonyl)-cyclohexylamino]-8H-pyrido[2,3-d]pyrimidin-7-one] are 276.6 to 278.4 °C, 34.4 nM and 37.7 nM.

For the molecule `Cc1c(N)c2cnc(NC3CCCCC3)nc2n([C@@H]2CCOC2)c1=O` [Compound I-44, 5-Amino-2-cyclohexylamino-6-methyl-8-(R)-tetrahydro-furan-3-yl-8H-pyrido[2,3-d]pyrimidin-7-one], the melting point fell in the range of 225 to 226 °C. Same read-out and setting: then `Nc1cc(=O)n(C2CCCC2)c2nc(Nc3ccccc3)ncc12` [Compound I-45, 5-Amino-8-cyclopentyl-2-phenylamino-8H-pyrido[2,3-d]pyrimidin-7-one], with 128.3 to 130 °C; and `Nc1cc(=O)n(CC2CC2)c2nc(NC3CCOCC3)ncc12` [Compound I-46, 5-Amino-8-cyclopropylmethyl-2-(tetrahydro-pyran-4-ylamino)-8H-pyrido[2,3-d]pyrimidin-7-one], with 135 to 137.4 °C. `Cc1c(N)c2cnc(N[C@H]3CC[C@H](C(=O)N4CCC(O)CC4)CC3)nc2n([C@@H]2CCOC2)c1=O` [Compound I-47, 5-Amino-2-[4-(4-hydroxy-piperidine-1-carbonyl)-cyclohexylamino]-6-methyl-8-(R)-tetrahydro-furan-3-yl-8H-pyrido[2,3-d]pyrimidin-7-one] gave a melting point of 173 to 174 °C. On the same count and under the same terms, for `CC(C)c1c(N)c2cnc(NC3CCCCC3)nc2n(C2CCC2)c1=O` [Compound I-49, 5-Amino-8-cyclobutyl-2-cyclohexylamino-6-isopropyl-8H-pyrido[2,3-d]pyrimidin-7-one] the value was 277.5 to 278 °C. The same measure, in the same setting: for `CCn1c(=O)cc(N)c2cnc(NC3CCOCC3)nc21` [Compound I-50, 5-Amino-8-ethyl-2-(tetrahydro-pyran-4-ylamino)-8H-pyrido[2,3-d]pyrimidin-7-one] the value was 235 to 238.2 °C; for `Nc1cc(=O)n(C2CCCCC2)c2nc(NC3CCOCC3)ncc12` [Compound I-51, 5-Amino-8-cyclohexyl-2-(tetrahydro-pyran-4-ylamino)-8H-pyrido[2,3-d]pyrimidin-7-one], 160 to 164 °C; for `Cc1c(N)c2cnc(NC3CCN(S(C)(=O)=O)CC3)nc2n([C@@H]2CCOC2)c1=O` [Compound I-53, 5-Amino-2-(1-methanesulfonyl-piperidin-4-ylamino)-6-methyl-8-(R)-tetrahydro-furan-3-yl-8H-pyrido[2,3-d]pyrimidin-7-one], more than 300 °C. Still for that read-out and setting: for `Nc1cc(=O)n(C2CC2)c2nc(NC3CCOCC3)ncc12` [Compound I-54, 5-Amino-8-cyclopropyl-2-(tetrahydro-pyran-4-ylamino)-8H-pyrido[2,3-d]pyrimidin-7-one] the value was 264.4 to 266.8 °C; for `Nc1cc(=O)n(CC2CC2)c2nc(NC3CCC3)ncc12` [Compound I-55, 5-Amino-2-cyclobutylamino-8-cyclopropylmethyl-8H-pyrido[2,3-d]pyrimidin-7-one], 236.1 to 239.1 °C; for `CCOC(=O)N1CCC(Nc2ncc3c(N)c(C)c(=O)n(C4CCC4)c3n2)CC1` [Compound I-56, 4-(5-Amino-8-cyclobutyl-6-methyl-7-oxo-7,8-dihydro-pyrido[2,3-d]pyrimidin-2-ylamino)-piperidine-1-carboxylic acid ethyl ester], 201.3 to 202.6 °C.

With `Nc1cc(=O)n(C2CCCCC2)c2nc(NC3CCC(F)(F)CC3)ncc12` [Compound I-57, 5-Amino-8-cyclohexyl-2-(4,4-difluoro-cyclohexylamino)-8H-pyrido[2,3-d]pyrimidin-7-one], the melting point was 240 to 244.1 °C. Same read-out and setting: for `CC(=O)N1CCC(Nc2ncc3c(N)c(C)c(=O)n(C4CCCC4)c3n2)CC1` [Compound I-59, 2-(1-Acetyl-piperidin-4-ylamino)-5-amino-8-cyclopentyl-6-methyl-8H-pyrido[2,3-d]pyrimidin-7-one] the value was 281 to 283 °C; for `Cc1ccccc1Nc1ncc2c(N)c(C)c(=O)n(C3CCC3)c2n1` [Compound I-62, 5-Amino-8-cyclobutyl-6-methyl-2-o-tolylamino-8H-pyrido[2,3-d]pyrimidin-7-one], 186 to 187 °C. As for `Nc1cc(=O)n(Cc2ccccc2)c2nc(NC3CCCCC3)ncc12` [Compound I-66, 5-Amino-8-benzyl-2-cyclohexylamino-8H-pyrido[2,3-d]pyrimidin-7-one], the melting point was in the range of 221.9 to 223.8 °C. Turning to `CC(=O)c1c(N)c2cnc(NC3CCCCC3)nc2n(C2CCC2)c1=O` [Compound I-68, 6-Acetyl-5-amino-8-cyclobutyl-2-cyclohexylamino-8H-pyrido[2,3-d]pyrimidin-7-one], the melting point was in the range of 256 to 257 °C.

Regarding `Nc1cc(=O)n(Cc2ccccc2)c2nc(NC3CCOCC3)ncc12` [Compound I-69, 5-Amino-8-benzyl-2-(tetrahydro-pyran-4-ylamino)-8H-pyrido[2,3-d]pyrimidin-7-one], the melting point lay within 245.6 to 246.8 °C. The same measure, in the same setting: for `Cc1cccc(C)c1Nc1ncc2c(N)c(C)c(=O)n(C3CCC3)c2n1` [Compound I-70, 5-Amino-8-cyclobutyl-2-(2,6-dimethyl-phenylamino)-6-methyl-8H-pyrido[2,3-d]pyrimidin-7-one] the value was 213 to 214 °C.

Source of the values: patent US8268840B2, “Pyrimidinyl pyridone inhibitors of kinases” (Roche Palo Alto LLC, priority 2008, dated 2012).
